Counter-ions that a name gives are not always drawn. Like-named read-outs stand apart in the source and are kept apart here.
Tests used:
dopamine transporter [1] = biological target: T1, dopamine transporter (Rattus norvegicus, UniProt P23977); test: In vitro inhibition of ^3 H-WIN 35428 binding (corpus striatum); design: species or system rat (male Wistar)
T1 construct: Corpus striatum from male Wistar rats (150-200 g) is homogenized; from tissue; host or cells: corpus striatum of male Wistar rats
T1 sequence (P23977 whole entry): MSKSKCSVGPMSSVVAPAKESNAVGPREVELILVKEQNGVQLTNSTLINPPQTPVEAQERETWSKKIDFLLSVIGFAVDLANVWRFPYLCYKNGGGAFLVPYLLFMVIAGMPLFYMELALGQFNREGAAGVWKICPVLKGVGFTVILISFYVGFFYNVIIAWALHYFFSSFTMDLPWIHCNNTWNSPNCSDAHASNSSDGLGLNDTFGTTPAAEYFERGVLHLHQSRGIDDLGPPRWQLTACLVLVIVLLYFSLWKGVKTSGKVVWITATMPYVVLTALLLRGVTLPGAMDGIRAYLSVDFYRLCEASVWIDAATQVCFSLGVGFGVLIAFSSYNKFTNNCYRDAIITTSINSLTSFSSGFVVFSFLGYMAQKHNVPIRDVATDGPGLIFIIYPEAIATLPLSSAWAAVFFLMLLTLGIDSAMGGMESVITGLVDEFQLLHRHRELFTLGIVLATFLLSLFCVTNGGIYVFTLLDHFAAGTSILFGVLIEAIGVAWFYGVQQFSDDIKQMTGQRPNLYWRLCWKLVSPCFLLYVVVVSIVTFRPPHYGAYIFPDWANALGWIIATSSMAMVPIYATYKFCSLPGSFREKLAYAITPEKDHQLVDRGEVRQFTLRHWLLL
From the text: The compounds of the present invention have been tested for their ability to bind to the dopamine transporter in the following tests for in vitro and in vivo inhibition of ^3 H-WIN 35428.
In vitro inhibition of ^3 H-WIN 35428 binding
Dopamine transporters/uptake sites on nerve terminals presumably function to terminate neuronal signaling by removing dopamine from the synaptic cleft. The activity or presence of the dopamine transporter integral protein can be measured in vitro with synaptosomal uptake of ^3 H-dopamine or membrane binding assays with ^3 H-ligands known to bind to the transporter.
Numerous ligands of several structural types have been reported to bind at the dopamine uptake site, but it remains questionable whether their binding sites are identical to that of cocaine.
Tissue preparation: Preparations are performed at 0°-4° C. unless otherwise indicated. Corpus striatum from male Wistar rats (150-200 g) is homogenized for 5-10 sec in 10 ml NaH2 PO4 (50 mM, pH 7.4) using an Ultra-Turrax homogenizer. The suspension is centrifuged at 27,000×g for 15 min. The supernatant is discarded and the pellet is resuspended in 50 mM NaH2 PO4, pH 7.4 (1000 ml per g of original tissue) and used for binding assays.
Assay: Aliquots of 0.5 ml tissue are added to […] of ^3 H-WIN 35428 (1 nM, final concentration), mixed and incubated for 60 min at 2° C. Non-specific binding is determined using cocaine ([…], final concentration). After incubation the samples are added 5 ml of ice-cold buffer and poured directly onto Whatman GF/C glass fibre filters under suction and immediately washed with 5 ml ice-cold buffer. The amount of radioactivity on the filters is determined by conventional liquid scintillation counting. Specific binding is total binding minus non-specific binding.
25-75% inhibition of specific binding must be obtained, before calculation of an IC50. The test value is given as IC50 (the concentration (μM) of the test substance which inhibits the specific binding of ^3 H-WIN 35428 by 50%).

dopamine transporter [2] = biological target: T2, dopamine transporter (Mus musculus, UniProt Q61327); test: In vivo inhibition of ^3 H-WIN 35428 binding (striatum); design: from tissue; host or cells: striatum of living female NMRI mice; species or system mice (female NMRI); details: ip, mice, inhibition of specific ^3 H-WIN 35428 binding in striatum
T2 sequence (Q61327 whole entry): as the sequence (P23977 whole entry) above, with S21P, A57V, A194S, H600R, L619V counted along it
Method: All test substances used are solutions or suspensions prepared in 10% TWEEN 80. Groups of three female NMRI mice (25 g) are injected i.p. with the test substance. […] Tissues are weighed and dissolved for 36 h with 1 ml 2% sodium-laurylsulfat. The solubilized tissue is then added 2 ml of scintillation cocktail, and the amount of radioactivity per mg of tissue is counted by conventional liquid scintillation counting. Groups of untreated mice serves as controls.
The ED50 value is determined from dose response curves.
ED50 =(administered dose, mg/kg)×1/(C0 /Cx -1), where C0 is specific binding in controls and Cx is the specific binding in mice treated with test substance.

[3] = system: immobility time of mice suspended by the tail; test: Tail Suspension; assay type: in vivo, mice (female NMRI); details: Mus musculus, 0.5 h, oral, 30 min before test, dose reducing the immobility to 100 sec
Method: A decrease in the immobility time by mice suspended in their tail is seen after systemic administration of central stimulants and by antidepressants (Steru, L., Chermat, R., Thierry, B. & Simon, P. (1985) The tail suspension test: A new method for screening antidepressants in mice. Psychopharmacology 85:367-370.).
Female NMRI mice (20-25 g) habituated to the room (12 hours light/dark) for at least 16 hours and housed 25 per cage are used. The mice are suspended by the tail with adhesive tape to a rod 30 cm above the lab. bench 30 min after an oral administation of vehicle or drug. For the next 6 min the accumulated duration of immobility defined as no movements by the body or extremities (however head movements are not defined as movements) are noted, Six mice per dose are used.
Saline or vehicle treated mice have immobility time scores between 160-180 sec in average. An ED50 -value is calculated by graphical interpolation from at least 3 doses as the dose reducing the immobility to 100 sec.

dopamine transporter [4] = biological target: T2, dopamine transporter; details: cited from earlier work
[5] = rat corpus striatum, ^3 H-WIN 35428 1 nM, 60 min at 2° C., read-out: in vitro IC50

SMILES	IC50 (dopamine transporter [1]; [5]) [nM]	ED50 (dopamine transporter [2]) [mg/kg]	ED50 [3] [mg/kg]	further results
CC(C)CON=C[C@@H]1[C@@H](c2ccc(Cl)c(Cl)c2)C[C@@H]2CC[C@H]1N2C [(1R,2R,3S)-3-(3,4-Dichlorophenyl)tropane-2-O-(2-methylpropyl)-aldoxime hydrochloride]	56	–	–	–
C=CCON=C[C@@H]1[C@@H](c2ccc(Cl)c(Cl)c2)C[C@@H]2CC[C@H]1N2C [(1R,2R,3S)-3-(3,4-Dichlorophenyl)tropane-2-O-(2-propenyl)-aldoxime hydrochloride]	22	–	–	–
C#CCON=C[C@@H]1[C@@H](c2ccc(Cl)c(Cl)c2)C[C@@H]2CC[C@H]1N2C [(1R,2R,3S)-3-(3,4-Dichlorophenyl)tropane-2-O-(2-propynyl)-aldoxime hydrochloride]	19	–	–	–
CN1[C@H]2CC[C@@H]1[C@H](C=NOCC1CC1)[C@@H](c1ccc(Cl)c(Cl)c1)C2 [(1R,2R,3S)-3-(3,4-Dichlorophenyl)tropane-2-O-cyclopropylmethyl-aldoxime hydrochloride]	20	–	–	–
CCOC(=O)CON=C[C@@H]1[C@@H](c2ccc(Cl)c(Cl)c2)C[C@@H]2CC[C@H]1N2C [(1R,2R,3S)-3-(3,4-Dichlorophenyl)tropane-2-O-ethoxycarbonylmethyl-aldoxime,hydrochloride]	24	> 10	–	–
CN1[C@H]2CC[C@@H]1[C@H](C=NO)[C@@H](c1ccc(Cl)c(Cl)c1)C2 [(1R,2R,3S)-3-(3,4-Dichlorophenyl)tropane-2-aldoxime]	–	3.8	0.41	IC50 (dopamine transporter [1]): 3.4 nM
CC(C)CON=C[C@@H]1[C@@H](c2ccc(Cl)c(Cl)c2)C[C@@H]2CC[C@H]1N2C [(1R,2R,3S)-3-(3,4-dichlorophenyl)-tropane-2-O-(2-methylpropyl)-aldoxime]	–	–	0.8	–
C=CCON=C[C@@H]1[C@@H](c2ccc(Cl)c(Cl)c2)C[C@@H]2CC[C@H]1N2C [(1R,2R,3S)-3-(3,4-dichlorophenyl)-tropane-2-O-(2-propenyl)-aldoxime]	–	–	0.23	–
C#CCON=C[C@@H]1[C@@H](c2ccc(Cl)c(Cl)c2)C[C@@H]2CC[C@H]1N2C [(1R,2R,3S)-3-(3,4-dichlorophenyl)-tropane-2-O-(2-propynyl)-aldoxime]	–	–	0.04	–
CN1[C@H]2CC[C@@H]1[C@H](C=NOCc1ccccc1)[C@@H](c1ccc(Cl)c(Cl)c1)C2 [(1R,2R,3S)-3-(3,4-dichlorophenyl)-tropane-2-O-benzyl-aldoxime, HCl]	76	> 10	2	–
CN1[C@H]2CC[C@@H]1[C@H](C=NOCC1CC1)[C@@H](c1ccc(Cl)c(Cl)c1)C2 [(1R,2R,3S)-3-(3,4-dichlorophenyl)-tropane-2-O-cyclopropylmethyl-aldoxime]	–	–	0.7	–
COC(=O)CON=C[C@@H]1[C@@H](c2ccc(Cl)c(Cl)c2)C[C@@H]2CC[C@H]1N2C [(1R,2R,3S)-3-(3,4-dichlorophenyl)tropane-2-O-methoxycarbonylmethyl-aldoxime]	–	–	0.25	–
CON=C[C@@H]1[C@@H](c2ccc(Cl)cc2)C[C@@H]2CC[C@H]1N2C [(1R,2R,3S)-3-(4-chlorophenyl)tropane-2-O-methylaldoxime hydrochloride]	48	1	0.43	–
CN1[C@H]2CC[C@@H]1[C@H](C=NO)[C@@H](c1ccc(Cl)cc1)C2 [(1R,2R,3S)-3-(4-chlorophenyl)tropane-2-aldoxime]	–	1.05	0.19	IC50 (dopamine transporter [1]): 13 nM
CON=C[C@@H]1[C@@H](c2ccc(C)cc2)C[C@@H]2CC[C@H]1N2C [(1R,2R,3S)-3-(4-methylphenyl)tropane-2-O-methyl-aldoxime hydrochloride]	42	–	–	–
CN1[C@H]2CC[C@@H]1[C@@H](C=NOCc1ccccc1)[C@@H](c1ccc(Cl)c(Cl)c1)C2 [(1R,2S,3S)-3-(3,4-dichlorophenyl)tropane-2-O-benzyl-aldoxime, hydrochloride]	–	–	0.94	–
CON=C[C@H]1[C@@H](c2ccc(Cl)c(Cl)c2)C[C@@H]2CC[C@H]1N2C [(1R,2S,3S)-3-(3,4-dichlorophenyl)tropane-2-O-methyl-aldoxime]	1.8	0.37	0.4	–
CN1[C@H]2CC[C@@H]1[C@@H](C=NO)[C@@H](c1ccc(Cl)c(Cl)c1)C2 [(1R,2S,3S)-3-(3,4-dichlorophenyl)tropane-2-aldoxime]	–	0.56	0.27	IC50 (dopamine transporter [1]): 2 nM
Fc1ccc(C(OCCN2CCN(CCCc3ccccc3)CC2)c2ccc(F)cc2)cc1 [GBR 12909]	–	–	–	prevention of specific binding of ^3 H-WIN 35428 in vivo (dopamine transporter [4]): partly or completely prevented

From US5736556A, “Tropane-2-aldoxime derivatives as nevro transmitter reuptake inhibitors” (NeuroSearch A/S, priority 1994, dated 1998)
